Reference: PMC12363935, “Unc-51 Like Kinase 3 (ULK3) is essential for autophagy and cell survival in multiple myeloma” (Research Square, 2025)

Tested on: CD138+ cells isolated from RRMM patient Pt1050
Assay: Immunoblot densitometry, patient cells
Format: cell-based, human
Conditions: Pt1050, 1μM; for ULK3 densitometry: CTRL 0.03; for ULK1 densitometry: CTRL 0.28
Procedure: Figure 7. MA9–060 treatment compromises the survival of patient NDMM and RRMM cells ex vivo. A. Representative viability (live cell imaging) response of CD138^+ cells from NDMM patient (Pt620) cultured and tested in autologous stromal microenvironment in EMMA’s ex vivo platform, exposed to three different concentrations of MA9–060 (0.7, 2.2, 6.7 μM). […] (not shown here – 20 μM). B. Ex vivo EMMA platform assay to quantify the chemosensitivity of primary CD138^+ MM cells plated in a collagen matrix with bone marrow stroma and patient plasma. […] C. […] H. Immunoblot showing levels of indicated proteins in CD138^+ cells isolated from RRMM patients (Pt971, Pt1050). Pt1050 CD138^+ cells were assessed for ULK3-mediated autophagy related proteins (ATGs), following treatment with MA9–060 (1μM at 2 and 6 hours).
157 5872S). Protein concentration was quantified by Thermo Scientific™ Pierce™ BCA™ Protein
30 μg protein was loaded to 10%-15% gel and ran at
159 100V for 2 hours. Later protein was transferred to PVDF membrane and blocked with 5% skimmed
160 milk in TBST (10 mM Tris/HCl pH8.0, 0.12M NaCl, 0.1% Tween 20) containing 5% BSA [8] for
163 at 4°C overnight. Membranes were washed 3 times,10 minutes with TBS. Then incubated with
164 appropriate secondary antibodies at 1:1000 ratio in skimmed milk or 2% BSA. The membranes
165 were washed again 3 times for 10 minutes with TBST. ECL reagents were added to the membrane
166 and blot was developed by LICOR Imaging Studio.
167 All immunoblotting assays were performed at least in three replicates and representative
168 images are shown. Commercially available antibodies and their dilutions are listed in
169 Supplementary Table 5. Immunoblotting images were acquired and quantified using LICOR
170 Image Studio Quant software. […]

Structure (SMILES): Cc1cnc(Nc2ccc(C3CCN(C)CC3)c(F)c2)nc1Nc1ccc(Cl)c(NS(=O)(=O)C(C)(C)C)c1 [MA9060]
- ULK3 densitometry (2h): 0.03
- ULK1 densitometry (2h): 0.67
- ULK3 densitometry (6h): 0.03
- ULK1 densitometry (6h): 0.35
